Measured values as given in ChEMBL document CHEMBL4257573, “Synthesis, modification, and cytotoxic evaluation of 2,3-secotriterpenic β-ketoesters” (Bioorg Med Chem Lett, 2018).
Activity calls are given as the source filed them. The calls are words filed in the database; no cut-off is given here.

Key:
[1] = test system: HCT-116; test: Cell cycle arrest in human HCT116 cells assessed as accumulation at G0/G1 phase at 2 uM after 18 hrs by DAPI staining-based flow cytometric analysis (RVB = 47.72%); type: functional
[2] = test system: MCF7; test: Cytotoxicity against human MCF7 cells assessed as reduction in cell viability after 72 hrs by MTT assay; type: functional, cell-based; conditions: MCF7, 72 h
[3] = test system: HCT-116; test: Cell cycle arrest in human HCT116 cells assessed as accumulation at S phase at 2 uM after 18 hrs by DAPI staining-based flow cytometric analysis (RVB = 25.49%); type: functional
[4] = test system: HCT-116; test: Induction of apoptosis in human HCT116 cells assessed as early apoptotic cells at 2 uM after 18 hrs by Annexin V/7-AAD staining based flow cytometric analysis (reference value: 5.84%); type: functional
[5] = Selectivity index, ratio of IC50 for HEK293 cells to IC50 for human MS cells; type: toxicity; conditions: HEK293 cells versus MS cells, read-out: Ratio IC50
[6] = Selectivity index, ratio of IC50 for HEK293 cells to IC50 for human MCF7 cells; type: toxicity; conditions: HEK293 cells versus MCF7 cells, read-out: Ratio IC50
[7] = test system: HCT-116; test: Cytotoxicity against human HCT116 cells assessed as reduction in cell viability at 2 uM by MTT assay; type: functional, cell-based; conditions: TDE = time-dependent effect
[8] = test system: HCT-116; test: Cytotoxicity against human HCT116 cells assessed as reduction in cell viability after 72 hrs by MTT assay; type: functional, cell-based
[9] = test system: HCT-116; test: Induction of apoptosis in human HCT116 cells assessed as viable cells at 2 uM after 18 hrs by Annexin V/7-AAD staining based flow cytometric analysis (reference value: 91.42%); type: functional; conditions: HCT-116, 18 h, read-out: Activity
[10] = test system: RD; test: Cytotoxicity against human RD cells assessed as reduction in cell viability after 72 hrs by MTT assay; type: functional, cell-based
[11] = Selectivity index, ratio of IC50 for HEK293 cells to IC50 for human Hep2 cells; type: toxicity; conditions: HEK293 cells versus Hep2 cells, read-out: Ratio IC50
[12] = Cytotoxicity against human MS cells assessed as reduction in cell viability after 72 hrs by MTT assay; type: functional, cell-based
[13] = test system: HCT-116; test: Cell cycle arrest in human HCT116 cells assessed as accumulation at G2/M phase at 2 uM after 18 hrs by DAPI staining-based flow cytometric analysis (RVB = 17.25%); type: functional
[14] = test system: HCT-116; test: Antimigratory activity in human HCT116 cells at 2 uM after 96 hrs by wound healing assay; type: functional, cell-based
[15] = test system: HCT-116; test: Induction of apoptosis in human HCT116 cells assessed as necrotic cells at 2 uM after 18 hrs by Annexin V/7-AAD staining based flow cytometric analysis (reference value: 0.62%); type: functional
[16] = test system: HEK293; test: Cytotoxicity against HEK293 cells assessed as reduction in cell viability after 72 hrs by MTT assay; type: cell-based; conditions: Homo sapiens, HEK293, 72 h
[17] = test system: HCT-116; test: Cell cycle arrest in human HCT116 cells assessed as accumulation at sub-G0 phase at 2 uM after 18 hrs by DAPI staining-based flow cytometric analysis (RVB = 8.55%); type: functional
[18] = test system: HCT-116; test: Induction of apoptosis in human HCT116 cells assessed as late apoptotic cells at 2 uM after 18 hrs by Annexin V/7-AAD staining based flow cytometric analysis (reference value: 2.12%); type: functional
[19] = test system: A549; test: Cytotoxicity against human A549 cells assessed as reduction in cell viability after 72 hrs by MTT assay; type: functional, cell-based; conditions: A549, 72 h
[20] = test system: HCT-116; test: Induction of apoptosis in human HCT116 cells assessed as necrotic cells at 3 uM after 18 hrs by Annexin V/7-AAD staining based flow cytometric analysis (reference value: 0.62%); type: functional
[21] = test system: HCT-116; test: Induction of apoptosis in human HCT116 cells assessed as increase in early apoptotic cells after 18 hrs by Annexin V/7-AAD staining based flow cytometric analysis; type: functional, cell-based
[22] = test system: HCT-116; test: Induction of apoptosis in human HCT116 cells assessed as late apoptotic cells at 6 uM after 18 hrs by Annexin V/7-AAD staining based flow cytometric analysis (reference value: 2.12%); type: functional
[23] = test system: HCT-116; test: Induction of apoptosis in human HCT116 cells assessed as necrotic cells at 6 uM after 18 hrs by Annexin V/7-AAD staining based flow cytometric analysis (reference value: 0.62%); type: functional
[24] = test system: HCT-116; test: Cytotoxicity against human HCT116 cells assessed as reduction in cell viability at 3 to 6 uM by MTT assay; type: functional, cell-based; conditions: TDE = time-dependent effect
[25] = test system: HCT-116; test: Cell cycle arrest in human HCT116 cells assessed as accumulation at G0/G1 phase at 6 uM after 18 hrs by DAPI staining-based flow cytometric analysis (RVB = 47.72%); type: functional
[26] = test system: HCT-116; test: Cell cycle arrest in human HCT116 cells assessed as accumulation at G2/M phase at 6 uM after 18 hrs by DAPI staining-based flow cytometric analysis (RVB = 17.25%); type: functional
[27] = test system: HCT-116; test: Cell cycle arrest in human HCT116 cells assessed as accumulation at sub-G0 phase at 6 uM after 18 hrs by DAPI staining-based flow cytometric analysis (RVB = 8.55%); type: functional
[28] = test system: HCT-116; test: Induction of apoptosis in human HCT116 cells assessed as late apoptotic cells at 3 uM after 18 hrs by Annexin V/7-AAD staining based flow cytometric analysis (reference value: 2.12%); type: functional
[29] = test system: HCT-116; test: Cell cycle arrest in human HCT116 cells assessed as decrease in accumulation at G0/G1 phase after 18 hrs by DAPI staining-based flow cytometric analysis; type: functional
[30] = test system: HCT-116; test: Antimigratory activity in human HCT116 cells after 96 hrs by wound healing assay; type: functional, cell-based
[31] = test system: HCT-116; test: Cell cycle arrest in human HCT116 cells assessed as accumulation at S phase at 6 uM after 18 hrs by DAPI staining-based flow cytometric analysis (RVB = 25.49%); type: functional
[32] = test system: HCT-116; test: Induction of mitochondrial membrane depolarization in human HCT116 cells at 3 uM after 18 hrs by Hoechst 33258 /rhodamine 123 staining based fluorescence inverted microscopic analysis; type: functional, cell-based
[33] = test system: HCT-116; test: Induction of apoptosis in human HCT116 cells assessed as viable cells at 3 uM after 18 hrs by Annexin V/7-AAD staining based flow cytometric analysis (reference value: 91.42%); type: functional; conditions: HCT-116, 18 h, read-out: Activity
[34] = test system: HEp-2; test: Cytotoxicity against human Hep2 cells assessed as reduction in cell viability after 72 hrs by MTT assay; type: functional, cell-based; conditions: HEp-2, 72 h
[35] = test system: HCT-116; test: Induction of apoptosis in human HCT116 cells assessed as viable cells at 6 uM after 18 hrs by Annexin V/7-AAD staining based flow cytometric analysis (reference value: 91.42%); type: functional; conditions: HCT-116, 18 h, read-out: Activity
[36] = test system: HCT-116; test: Cell cycle arrest in human HCT116 cells assessed as accumulation at S phase at 3 uM after 18 hrs by DAPI staining-based flow cytometric analysis (RVB = 25.49%); type: functional
[37] = test system: HCT-116; test: Cell cycle arrest in human HCT116 cells assessed as accumulation at G2/M phase at 3 uM after 18 hrs by DAPI staining-based flow cytometric analysis (RVB = 17.25%); type: functional
[38] = test system: HCT-116; test: Induction of apoptosis in human HCT116 cells assessed as early apoptotic cells at 6 uM after 18 hrs by Annexin V/7-AAD staining based flow cytometric analysis (reference value: 5.84%); type: functional
[39] = test system: HCT-116; test: Induction of apoptosis in human HCT116 cells assessed as increase in number of cells with condense nucleus at 3 uM after 18 hrs by Hoechst 33258 /rhodamine 123 staining based fluorescence inverted microscopic analysis; type: functional, cell-based
[40] = test system: HCT-116; test: Cell cycle arrest in human HCT116 cells assessed as accumulation at G0/G1 phase at 3 uM after 18 hrs by DAPI staining-based flow cytometric analysis (RVB = 47.72%); type: functional
[41] = test system: HCT-116; test: Induction of apoptosis in human HCT116 cells assessed as early apoptotic cells at 3 uM after 18 hrs by Annexin V/7-AAD staining based flow cytometric analysis (reference value: 5.84%); type: functional
[42] = test system: HCT-116; test: Cell cycle arrest in human HCT116 cells assessed as accumulation at sub-G0 phase at 3 uM after 18 hrs by DAPI staining-based flow cytometric analysis (RVB = 8.55%); type: functional
[43] = test system: HCT-116; test: Induction of apoptosis in human HCT116 cells assessed as decrease in viable cells after 18 hrs by Annexin V/7-AAD staining based flow cytometric analysis; type: functional, cell-based

SMILES: CC[C@@]1(O)C(=O)OCc2c1cc1n(c2=O)Cc2cc3ccccc3nc2-1 [CAMPTOTHECIN]
- Activity [1]: 27.71%
- IC50 [2]: 0.04 µM
- Activity [3]: 36.77%
- Activity [4]: 5.73%
- selectivity ratio [5]: 0.53 to 40.2
- selectivity ratio [6]: 0.53 to 40.2
- Activity [7]: Tde
- Activity [8]: Dose-dependent effect
- viability at 2 µM [9]: 81.9%
- IC50 [10]: 1.72 µM
- selectivity ratio [11]: 0.53 to 40.2
- IC50 [12]: 0.77 µM
- Activity [13]: 10.06%
- Activity [14]: Active
- Activity [15]: 5.08%
- IC50 [16]: 1.61 µM
- Activity [17]: 24.52%
- Activity [18]: 7.33%
- IC50 [19]: 1.31 µM

SMILES: C=C(C=O)[C@@H]1CC[C@]2(C(=O)OC)CC[C@]3(C)[C@H](CC[C@@H]4[C@@](C)(CC#N)[C@H](C(C)(C)C(=O)COC(C)=O)CC[C@]43C)[C@@H]12
- Activity [20]: 2.6%
- Activity [21]: Dose-dependent effect
- IC50 [2]: 9.68 µM
- Activity [22]: 11.2%
- Activity [23]: 3.21%
- Activity [24]: Tde
- Activity [25]: 21.49%
- selectivity ratio [5]: 2.42 to 9.61
- Activity [26]: 15.27%
- Activity [27]: 38.29%
- Activity [28]: 11.99%
- Activity [29]: Dose-dependent effect
- selectivity ratio [6]: 2.42 to 9.61
- Activity [30]: Dose-dependent effect
- Activity [8]: Dose-dependent effect
- IC50 ([8]; HCT-116, 72 h): 3.07 µM
- Activity [31]: 24.03%
- Activity [32]: Active
- viability at 3 µM [33]: 71.3%
- IC50 [34]: 12.2 µM
- IC50 [10]: 3.5 µM
- viability at 6 µM [35]: 58.5%
- selectivity ratio [11]: 2.42 to 9.61
- Activity [36]: 28.16%
- IC50 [12]: 3.61 µM
- Activity [37]: 19.99%
- Activity [38]: 27.07%
- Activity [39]: Active
- IC50 [16]: 29.5 µM
- Activity [40]: 35.65%
- IC50 [19]: 10.2 µM
- Activity [41]: 14.06%
- Activity [42]: 15.07%
- Activity [43]: Dose-dependent effect
